Measurements reported in publication PMC4029847 (Journal of clinical pharmacology, 2013).

Target: T1, OATP1A2 (Homo sapiens, UniProt P46721)
T1 sequence (P46721 1-670): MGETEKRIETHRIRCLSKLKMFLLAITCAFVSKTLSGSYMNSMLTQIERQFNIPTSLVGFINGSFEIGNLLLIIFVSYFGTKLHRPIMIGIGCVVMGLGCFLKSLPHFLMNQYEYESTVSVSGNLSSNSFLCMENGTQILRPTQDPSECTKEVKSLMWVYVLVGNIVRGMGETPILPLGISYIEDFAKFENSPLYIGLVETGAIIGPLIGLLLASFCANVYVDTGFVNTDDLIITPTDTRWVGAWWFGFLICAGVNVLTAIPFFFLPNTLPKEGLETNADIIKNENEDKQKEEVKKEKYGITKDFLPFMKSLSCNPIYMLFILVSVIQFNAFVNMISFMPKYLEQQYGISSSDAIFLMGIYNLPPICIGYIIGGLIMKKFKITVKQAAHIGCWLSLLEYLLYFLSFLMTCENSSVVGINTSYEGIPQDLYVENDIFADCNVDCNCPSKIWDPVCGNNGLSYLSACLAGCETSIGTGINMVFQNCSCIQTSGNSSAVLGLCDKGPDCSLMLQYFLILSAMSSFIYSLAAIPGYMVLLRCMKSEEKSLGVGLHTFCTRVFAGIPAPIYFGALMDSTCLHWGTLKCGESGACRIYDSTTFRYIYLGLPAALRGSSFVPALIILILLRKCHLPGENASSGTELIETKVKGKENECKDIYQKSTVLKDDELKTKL
Assay: Inhibition of fexofenadine uptake in OATP1A2-transfected HEK293T/17 cells
Type: cell-based
Conditions: inhibitor 250 μmol/l, fexofenadine 5 μmol/l, 30 min

## O=C1OC(c2ccc(O)c(S(=O)(=O)O)c2)(c2ccc(O)c(S(=O)(=O)O)c2)c2c(Br)c(Br)c(Br)c(Br)c21 [BSP, bromosulfophthalein]
  Inhibition of fexofenadine uptake: did not inhibit
